Data: patent US20230364118A1, “RIBITOL TREATMENT” (priority 2020, published 2023)
Where “and” joins values, the source holds several entries; their conditions need not be identical. Equal values may be shown once. Read-outs that look alike come from different tables or passages of the source.

How the values were obtained:
[1] = 28-day oral GLP toxicity study with 14-day recovery; conditions: minipig
Procedure: The purpose of this GLP study was to assess the potential toxicity, reversibility, persistence, or delayed effects of ribitol in minipigs following 28 days of BID oral gavage dosing with a 14 day recovery period. In addition, the plasma TK profile of ribitol was evaluated on Days 1 and 28. Four Bama minipigs/sex/group were administered 0 (vehicle control, purified water), 0.1, 0.3, or 1.0 g/kg/dose ribitol by oral gavage BID (0.2, 0.6, 2.0 g/kg/day; 6 hours apart) for 28 days. In addition, 2 minipigs/sex/group were treated for 28 days with either vehicle (water) or 1.0 g/kg/dose ribitol BID (2.0 g/kg/day) followed by 14-day treatment-free recovery period. In-life assessments included mortality, clinical signs including detailed clinical observations pre-test and once weekly during the dosing and recovery phase, body weight, food consumption, ophthalmology, electrocardiography, and clinical pathology (hematology, coagulation, serum chemistry, and urinalysis). Terminal endpoints included macroscopic pathology, organ weights and histopathology. Blood was taken for plasma TK on Days 1 and 28.

[2] = as above; conditions: mouse
Procedure: The purpose of this GLP study was to assess the potential toxicity, reversibility, persistence, or delayed effects of ribitol in mice following 28 days of BID oral gavage dosing. In addition, 20 mice/sex/group were treated for 28 days with either vehicle (purified water), 0.5, 1.0, or 1.5 g/kg/dose ribitol BID (1.0, 2.0, or 3.0 g/kg/day) followed by 14-day treatment free recovery period. In-life assessments included mortality, clinical signs including detailed clinical observations pre-test and once weekly during the dosing and recovery phase, body weight, food consumption, ophthalmology, and clinical pathology (hematology and serum chemistry). Terminal endpoints included macroscopic pathology, organ weights and histopathology. Blood was taken from a satellite group of mice for plasma TK (3/sex/timepoint) on Days 1 and 28.

[3] = 7-day repeat-dose oral toxicokinetics; format: in vivo, Bama minipig; conditions: for Tmax / Cmax / AUC(0-t): Bama, minipig, plasma; for AUC(0-t): read-out: AUC0-24
Procedure: Toxicokinetics were evaluated as part of a 7-day oral repeat-dose dose range finding study in Bama minipigs. […] On Days 1 and 7, blood was taken for plasma TK at 0 (pre first dose), 0.5, 1, 2, 4, 6 (pre-second dose), 6.5, 7, 8, 10, and 24 hours post-first dose.

[4] = Functional observational battery (FOB)
Procedure: In this GLP study, the potential effects of ribitol on the CNS were evaluated in CD-1 mice utilizing the FOB. Male mice were randomly assigned to 4 groups of 8 and were administered a single oral dose of 0 (vehicle, purified water), 0.5, 1.0, or 2.0 g/kg ribitol. The FOB tests were conducted pre dose, and at 0.5, 1, 2, 4, and 24 hours post dose.

[5] = female, po, 0.1 g/kg, 0.1 g/kg BID, Day 1, F
[6] = female, po, 0.1 g/kg, 0.1 g/kg BID, Day 7, F
[7] = female, po, 0.3 g/kg, 0.3 g/kg BID, Day 1, F
[8] = female, po, 0.3 g/kg, 0.3 g/kg BID, Day 7, F
[9] = female, po, 1 g/kg, 1.0 g/kg BID, Day 1, F
[10] = female, po, 1 g/kg, 1.0 g/kg BID, Day 7, F
[11] = male, po, 0.1 g/kg, 0.1 g/kg BID, Day 1, M
[12] = male, po, 0.1 g/kg, 0.1 g/kg BID, Day 7, M
[13] = male, po, 0.3 g/kg, 0.3 g/kg BID, Day 1, M
[14] = male, po, 0.3 g/kg, 0.3 g/kg BID, Day 7, M
[15] = male, po, 1 g/kg, 1.0 g/kg BID, Day 1, M
[16] = male, po, 1 g/kg, 1.0 g/kg BID, Day 7, M

## OC[C@@H](O)[C@@H](O)[C@@H](O)CO [ribitol, (2R,3s,4S)-Pentane-1,2,3,4,5-pentol]
[1]; both, Bama, in vivo, po
  NOAEL at 28 days: 2000 mg/kg/day
[1]; 28 days oral, both sexes
  NOAEL: 1 g/kg/dose BID and 1.0 g/kg/dose BID
[2]; 28 days oral
  NOAEL: 1.5 g/kg/dose BID
[2]; in vivo
  time to resolution of soft or abnormal stools: 2 to 8 days
[3]; 7 days, up to 1.0 g/kg/dose BID
  drug accumulation: no apparent accumulation
[3]; both sexes, oral, post first dose, Days 1 and 7, range
  Tmax: 0.5 to 6.5 h
[3]; [5]
  Cmax: 53.1 µg/mL
  Tmax: 3.8 h
  AUC(0-t): 284 µg·h/mL
[3]; [6]
  Cmax: 40.2 µg/mL
  Tmax: 0.8 h
  AUC(0-t): 317 µg·h/mL
[3]; [7]
  Cmax: 112 µg/mL
  Tmax: 0.8 h
  AUC(0-t): 676 µg·h/mL
[3]; [8]
  Cmax: 159 µg/mL
  Tmax: 0.5 h
  AUC(0-t): 784 µg·h/mL
[3]; [9]
  Cmax: 299 µg/mL
  Tmax: 1.3 h
  AUC(0-t): 1750 µg·h/mL
[3]; [10]
  Cmax: 331 µg/mL
  Tmax: 1.3 h
  AUC(0-t): 1870 µg·h/mL
[3]; [11]
  Cmax: 35.5 µg/mL
  Tmax: 3.5 h
  AUC(0-t): 160 µg·h/mL
[3]; [12]
  Cmax: 45.1 µg/mL
  Tmax: 3.5 h
  AUC(0-t): 183 µg·h/mL
[3]; [13]
  Cmax: 117 µg/mL
  Tmax: 6.5 h
  AUC(0-t): 504 µg·h/mL
[3]; [14]
  Cmax: 58.3 µg/mL
  Tmax: 0.5 h
  AUC(0-t): 438 µg·h/mL
[3]; [15]
  Cmax: 308 µg/mL
  Tmax: 3.8 h
  AUC(0-t): 169 µg·h/mL
[3]; [16]
  Cmax: 283 µg/mL
  Tmax: 1.3 h
  AUC(0-t): 1920 µg·h/mL
[4]; 0.5, 1.0, 2.0 g/kg, 0.5-24 h post dose
  treatment-related effects on FOB parameters: no treatment-related effects
[4]; male, CD-1, mouse, in vivo, 24 h
  safety margin for proposed clinical starting dose: 19 fold
[4]; single oral dose, male, highest dose tested
  NOEL, CNS effects (FOB): 2000 mg/kg
